According to ChEMBL document CHEMBL5634117 (Eur J Med Chem, 2023):

Legend:
HL-60(TB) = test: Growth inhibition of human HL-60(TB) cells assessed as reduction in cell viability measured after 48 hrs by SRB assay; type: functional
OVCAR-5 = test: Growth inhibition of human OVCAR-5 cells assessed as reduction in cell viability measured after 48 hrs by SRB assay; type: functional
A549 = test: Growth inhibition of human A549 cells assessed as reduction in cell viability measured after 48 hrs by SRB assay; type: functional
LOX IMVI = test: Growth inhibition of human LOX IMVI cells assessed as reduction in cell viability measured after 48 hrs by SRB assay; type: functional
[1] = biological target: Mitogen-activated protein kinase 10 (Homo sapiens, UniProt P53779); test: Inhibition of human JNK3 at 10 uM in presence of ATP relative to control
M14 = test: Growth inhibition of human M14 cells assessed as reduction in cell viability measured after 48 hrs by SRB assay; type: functional
A498 = test: Growth inhibition of human A498 cells assessed as reduction in cell viability measured after 48 hrs by SRB assay; type: functional
NCI-H23 = test: Growth inhibition of human NCI-H23 cells assessed as reduction in cell viability measured after 48 hrs by SRB assay; type: functional
OVCAR-8 = test: Growth inhibition of human OVCAR-8 cells assessed as reduction in cell viability measured after 48 hrs by SRB assay; type: functional
ACHN = test: Growth inhibition of human ACHN cells assessed as reduction in cell viability measured after 48 hrs by SRB assay; type: functional
MOLT-4 = test: Growth inhibition of human MOLT-4 cells assessed as reduction in cell viability measured after 48 hrs by SRB assay; type: functional
HCT-15 = test: Growth inhibition of human HCT-15 cells assessed as reduction in cell viability measured after 48 hrs by SRB assay; type: functional
SK-MEL-5 = test: Growth inhibition of human SK-MEL-5 cells assessed as reduction in cell viability measured after 48 hrs by SRB assay; type: functional
RXF 393 = test: Growth inhibition of human RXF 393 cells assessed as reduction in cell viability measured after 48 hrs by SRB assay; type: functional
EKVX = test: Growth inhibition of human EKVX cells assessed as reduction in cell viability measured after 48 hrs by SRB assay; type: functional
MCF7 = test: Growth inhibition of human MCF7 cells assessed as reduction in cell viability measured after 48 hrs by SRB assay; type: functional
U-251 = test: Growth inhibition of human U-251 cells assessed as reduction in cell viability measured after 48 hrs by SRB assay; type: functional
K562 [2] = test: Induction of cell cycle arrest in human K562 cells assessed as accumulation of cells at G0/G1 phase at 0.64 uM measured after 24 hrs by PI staining based flow cytometry analysis (reference value: 46.72%); type: functional
K562 [3] = test: Induction of apoptosis in human K562 cells assessed as early apoptotic cells at 0.64 uM incubated for 24 hrs by annexinV and propidium iodide staining based flow cytometry analysis (reference value: 1.17%); type: functional
[4] = Cytotoxicity against African green monkey Vero cells assessed as decrease in population of viable cells at 0 to 10 uM measured after 48 hrs by SRB assay relative to control; type: toxicity, cell-based; settings: chlorocebus sabaeus, dose 0-10 µM
K562 [5] = test: Induction of cell cycle arrest in human K562 cells assessed as accumulation of cells at G2/M phase at 0.64 uM measured after 24 hrs by PI staining based flow cytometry analysis (reference value: 25.62%); type: functional
K562 [6] = test: Induction of cell cycle arrest in human K562 cells assessed as accumulation of cells at G2/M phase at 1.28 uM measured after 24 hrs by PI staining based flow cytometry analysis (reference value: 25.62%); type: functional
K562 [7] = test: Induction of apoptosis in human K562 cells assessed as early apoptotic cells at 1.25 uM incubated for 24 hrs by annexinV and propidium iodide staining based flow cytometry analysis (reference value: 0.42%); type: functional
K562 [8] = test: Induction of apoptosis in human K562 cells assessed as late apoptotic cells at 1.28 uM incubated for 24 hrs by annexinV and propidium iodide staining based flow cytometry analysis (reference value: 1.34%); type: functional
K562 [9] = test: Induction of cell cycle arrest in human K562 cells assessed as accumulation of cells at SubG1 phase at 2.5 uM measured after 24 hrs by PI staining based flow cytometry analysis (reference value: 3.43%); type: functional
K562 [10] = test: Induction of apoptosis in human K562 cells assessed as late apoptotic cells at 0.64 uM incubated for 24 hrs by annexinV and propidium iodide staining based flow cytometry analysis (reference value: 1.34%); type: functional
K562 [11] = test: Induction of cell cycle arrest in human K562 cells assessed as accumulation of cells at SubG1 phase at 5 uM measured after 24 hrs by PI staining based flow cytometry analysis (reference value: 3.43%); type: functional
K562 [12] = test: Induction of apoptosis in human K562 cells assessed as early apoptotic cells at 2.5 uM incubated for 24 hrs by annexinV and propidium iodide staining based flow cytometry analysis (reference value: 0.42%); type: functional
K562 [13] = test: Induction of cell cycle arrest in human K562 cells assessed as accumulation of cells at G0/G1 phase at 5 uM measured after 24 hrs by PI staining based flow cytometry analysis (reference value: 46.67%); type: functional
K562 [14] = test: Induction of cell cycle arrest in human K562 cells assessed as accumulation of cells at G2/M phase at 1.28 uM measured after 24 hrs by PI staining based flow cytometry analysis (reference value: 29.092%); type: functional
K562 [15] = test: Induction of cell cycle arrest in human K562 cells assessed as accumulation of cells at SubG1 phase at 1.28 uM measured after 24 hrs by PI staining based flow cytometry analysis (reference value: 2.48%); type: functional
K562 [16] = test: Induction of cell cycle arrest in human K562 cells assessed as accumulation of cells at S phase at 1.25 uM measured after 24 hrs by PI staining based flow cytometry analysis (reference value: 20.42%); type: functional
K562 [17] = test: Induction of cell cycle arrest in human K562 cells assessed as accumulation of cells at S phase at 2.5 uM measured after 24 hrs by PI staining based flow cytometry analysis (reference value: 20.42%); type: functional
K562 [18] = test: Induction of apoptosis in human K562 cells assessed as late apoptotic cells at 5 uM incubated for 24 hrs by annexinV and propidium iodide staining based flow cytometry analysis (reference value: 1.342%); type: functional
K562 [19] = test: Induction of apoptosis in human K562 cells assessed as early apoptotic cells at 0.64 uM incubated for 24 hrs by annexinV and propidium iodide staining based flow cytometry analysis (reference value: 0.42%); type: functional
K562 [20] = test: Induction of cell cycle arrest in human K562 cells assessed as accumulation of cells at G0/G1 phase at 2.5 uM measured after 24 hrs by PI staining based flow cytometry analysis (reference value: 46.67%); type: functional
K562 [21] = test: Induction of cell cycle arrest in human K562 cells assessed as accumulation of cells at G2/M phase at 5 uM measured after 24 hrs by PI staining based flow cytometry analysis (reference value: 29.44%); type: functional

Mitogen-activated protein kinase 10, sequence (P53779 whole entry): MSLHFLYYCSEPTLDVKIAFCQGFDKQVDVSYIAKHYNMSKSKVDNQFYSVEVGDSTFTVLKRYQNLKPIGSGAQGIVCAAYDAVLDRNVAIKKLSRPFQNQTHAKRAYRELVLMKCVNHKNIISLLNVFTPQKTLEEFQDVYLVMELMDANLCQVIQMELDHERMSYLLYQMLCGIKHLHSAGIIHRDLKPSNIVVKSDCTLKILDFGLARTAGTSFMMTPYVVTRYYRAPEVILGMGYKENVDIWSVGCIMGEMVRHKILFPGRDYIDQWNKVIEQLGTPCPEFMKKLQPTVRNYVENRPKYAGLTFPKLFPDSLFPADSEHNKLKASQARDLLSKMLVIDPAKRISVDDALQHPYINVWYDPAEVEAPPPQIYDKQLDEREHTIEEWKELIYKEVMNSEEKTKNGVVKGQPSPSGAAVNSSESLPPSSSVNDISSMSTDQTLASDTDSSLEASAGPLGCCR

| Compound | GI50 (HL-60(TB)) [nM] | GI50 (OVCAR-5) [nM] | GI50 (A549) [nM] | GI50 (LOX IMVI) [nM] | inhibition [1] [%] | GI50 (M14) [nM] | GI50 (A498) [nM] | GI50 (NCI-H23) [nM] | GI50 (OVCAR-8) [nM] | GI50 (ACHN) [nM] | GI50 (MOLT-4) [nM] | GI50 (HCT-15) [nM] | GI50 (SK-MEL-5) [nM] | GI50 (RXF 393) [nM] | GI50 (EKVX) [nM] | GI50 (MCF7) [nM] | GI50 (U-251) [nM] | other results |
| --- | --- | --- | --- | --- | --- | --- | --- | --- | --- | --- | --- | --- | --- | --- | --- | --- | --- | --- |
| CC(C)(C)n1cc(-c2ccnc(NCCCNS(=O)(=O)c3ccc(C(F)(F)F)cc3)c2)c(-c2cccc(O)c2)n1 | 2810 | 1810 | 2020 | 1720 | 98.6 | 2000 | 1540 | 1670 | 2460 | 1880 | 2330 | 1470 | 1600 | 1460 | 1820 | 1780 | 1710 | – |
| CC(C)(C)n1cc(-c2ccnc(NCCCNS(=O)(=O)c3ccc(Cl)cc3)c2)c(-c2cccc(O)c2)n1 | 2510 | 1570 | 1970 | 1730 | 99.2 | 1720 | 1510 | 1680 | 2220 | 1970 | 1910 | 1520 | 1440 | 1460 | 2040 | 1840 | 1620 | Activity (K562 [2]): 25.21%; Activity (K562 [3]): 1.07%; Activity [4]: 68%; Activity (K562 [5]): 51.01%; Activity (K562 [6]): 58.95% |
| CC(C)(C)n1cc(-c2ccnc(NCCCNS(=O)(=O)c3ccc(Br)cc3)c2)c(-c2cccc(O)c2)n1 | 2720 | 1870 | 2110 | 1770 | 99.2 | 1780 | 1330 | 1830 | 2430 | 1990 | 2300 | 1480 | 1520 | 1460 | 1950 | 1880 | 1650 | – |
| O=C1c2ccccc2-c2n[nH]c3cccc1c23 | 42100 | 24400 | 14900 | – | – | 100000 | 7030 | 23800 | 22000 | 6640 | 20400 | 8040 | 14600 | 20800 | 20000 | 49000 | 23100 | Activity (K562 [7]): 0.72%; Activity (K562 [8]): 1.25%; Activity (K562 [9]): 4.35%; Activity (K562 [10]): 1.14%; Activity (K562 [11]): 4.01%; Activity (K562 [12]): 1.17%; Activity (K562 [13]): 28.76%; Activity (K562 [14]): 47.55%; Activity (K562 [15]): 7.26%; Activity (K562 [16]): 19.52%; Activity (K562 [17]): 19.27%; Activity (K562 [18]): 4.12%; Activity (K562 [19]): 1.59%; Activity (K562 [20]): 30.88%; Activity (K562 [21]): 47.08% |
| CC(C)(C)n1cc(-c2ccnc(NCCCNS(=O)(=O)c3cccc4ccccc34)c2)c(-c2cccc(O)c2)n1 | 2680 | 1980 | 2290 | 1730 | 98.7 | 1680 | 1370 | 1780 | 2380 | 2700 | 2000 | 1530 | 1520 | 1520 | 2130 | 1910 | 1730 | – |
